A short description of the experiment: Time-Resolved Fluorescence Resonance Energy Transfer (TR-FRET) Assay: The human kinase Mps-1 phosphorylates a biotinylated substrate peptide. Detection of the phosphorylated product is achieved by time-resolved fluorescence resonance energy transfer (TR-FRET) from Europium-labelled anti-phospho-Serine/Threonine antibody as donor to streptavidin labelled with cross-linked allophycocyanin (SA-XLent) as acceptor. Compounds are tested for their inhibition of the kinase activity.N-terminally GST-tagged human full length recombinant Mps-1 kinase (purchased from Invitrogen, Karslruhe, Germany, cat. no PV4071) was used. […] The concentration of Mps-1 in the assay was adjusted to the activity of the enzyme lot and was chosen appropriate to have the assay in the linear range, typical enzyme concentrations were in the range of about 1 nM (final conc. in the 5 ul assay volume). For orientation: In TR-FRET formats the signal depends on donor and acceptor labels being close together.

`Cc1cc(-c2cnc3c(NCCC(F)(F)F)cc(C(F)c4cccc(F)c4)nn23)ccc1C(=O)NC1CC1` (configuration not stated): the IC50 was found to be 0.7 nM.

Turning to `Cc1cc(-c2cnc3c(NCCC(F)(F)F)cc(C4(c5cccc(F)c5)CC4)nn23)ccc1C(=O)NC1CC1`, the half-inhibitory concentration (IC50) stood at 0.9 nM.

Take `Cc1cc(-c2cnc3c(NCCC(F)(F)F)cc(C(=O)c4cc(F)ccc4F)nn23)ccc1C(=O)NC1CC1`: the 50% inhibitory concentration (IC50) came out at 0.6 nM.

Consider `COc1ccc(C(=O)c2cc(NCCC(F)(F)F)c3ncc(-c4ccc(C(=O)NC5CC5)c(C)c4)n3n2)cc1`, for which the IC50 worked out at 1.2 nM.

For `Cc1cc(-c2cnc3c(NCCC(F)(F)F)cc(C(F)(F)c4cccc(F)c4F)nn23)ccc1C(=O)NC1CC1`, the half-maximal inhibitory concentration (IC50) was 1.5 nM.

For `Cc1cc(-c2cnc3c(NCCC(F)(F)F)cc(C(F)(F)c4cc(F)ccc4F)nn23)ccc1C(=O)NC1CC1`, the 50% inhibitory concentration (IC50) was 0.5 nM.

For the compound `C=C(c1cc(NCCC(F)(F)F)c2ncc(-c3ccc(C(=O)NC4CC4)c(C)c3)n2n1)c1cc(F)ccc1O`, the IC50 was found to be 0.4 nM.

Regarding `Cc1cc(-c2cnc3c(NCCC(F)(F)F)cc(C4(c5cc(F)ccc5F)CC4)nn23)ccc1C(=O)NC1CC1`, the IC50 is 0.8 nM.

For the compound `Cc1cc(-c2cnc3c(NCCC(F)(F)F)cc(C(C)(O)c4cccc(F)c4O)nn23)ccc1C(=O)NC1CC1` (configuration not stated), the IC50 was 0.3 nM.

`Cc1cc(-c2cnc3c(NCCC(F)(F)F)cc(C(=O)c4cccc(F)c4F)nn23)ccc1C(=O)NC1CC1`: the half-inhibitory concentration (IC50) was 0.6 nM.

`C=C(c1cc(NCCC(F)(F)F)c2ncc(-c3ccc(C(=O)NC4CC4)c(C)c3)n2n1)c1cc(F)ccc1F`: the 50% inhibitory concentration (IC50) came to 0.6 nM.

Regarding `COc1cccc(C(=O)c2cc(NCCC(F)(F)F)c3ncc(-c4ccc(C(=O)NC5CC5)c(C)c4)n3n2)c1`, the half-inhibitory concentration (IC50) was determined as 0.5 nM.

Regarding `Cc1cc(-c2cnc3c(NCCC(F)(F)F)cc(C(O)c4cc(F)ccc4F)nn23)ccc1C(=O)NC1CC1` (configuration not stated), the IC50 came to 0.3 nM.

As for `C=C(c1ccc(OC)cc1)c1cc(NCCC(F)(F)F)c2ncc(-c3ccc(C(=O)NC4CC4)c(C)c3)n2n1`, the half-inhibitory concentration (IC50) came to 0.5 nM.

Regarding `C=C(c1cccc(F)c1)c1cc(NCCC(F)(F)F)c2ncc(-c3ccc(C(=O)NC4CC4)c(C)c3)n2n1`, the half-inhibitory concentration (IC50) amounted to 0.3 nM.

On to `C=C(c1cccc(OC)c1)c1cc(NCCC(F)(F)F)c2ncc(-c3ccc(C(=O)NC4CC4)c(C)c3)n2n1`, for which the IC50 came out at 0.8 nM.

Regarding `C=C(c1cc(NCCC(F)(F)F)c2ncc(-c3ccc(C(=O)NC4CC4)c(C)c3)n2n1)c1cccc(F)c1F`, the IC50 was found to be 0.4 nM.

The IC50 is the midpoint of a concentration-inhibition curve.

Source of the values: ChEMBL document CHEMBL5725270, “Substituted imidazopyridazines” (2016).
